Assays:
Test in all cases: relative viability (nuclei count vs DMSO), 5 days (fraction); higher = more cells survive
201T = test system: 201T
Outline: (§1)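 Each reported value is a median over duplicate plates. It expresses relative viability: treated-well nuclei count divided by vehicle-well nuclei count. Lung cancer cell lines in 1536-well plates were dosed by pin tool a day after seeding, alone with one drug or with a fixed anchor-drug dose plus five library-drug doses (not always all listed) in √10 steps, and nuclei were counted after 5 days.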

ABC-1 = test system: ABC-1
Outline: as §1

CAL-12T = test system: CAL-12T
Outline: as §1

COR-L23 = test system: COR-L23
Outline: as §1

HCC-44 = test system: HCC-44
Outline: as §1

HOP-62 = test system: HOP-62
Outline: as §1

LC-2-ad = test system: LC-2-ad
Outline: as §1

LCLC-103H = test system: LCLC-103H
Outline: as §1

NCI-H1355 = test system: NCI-H1355
Outline: as §1

NCI-H1395 = test system: NCI-H1395
Outline: as §1

NCI-H1651 = test system: NCI-H1651
Outline: as §1

NCI-H1666 = test system: NCI-H1666
Outline: as §1

NCI-H1993 = test system: NCI-H1993
Outline: as §1

NCI-H2085 = test system: NCI-H2085
Outline: as §1

NCI-H2170 = test system: NCI-H2170
Outline: as §1

NCI-H2228 = test system: NCI-H2228
Outline: as §1

NCI-H2347 = test system: NCI-H2347
Outline: as §1

NCI-H23 = test system: NCI-H23
Outline: as §1

NCI-H322M = test system: NCI-H322M
Outline: as §1

NCI-H520 = test system: NCI-H520
Outline: as §1

NCI-H647 = test system: NCI-H647
Outline: as §1

NCI-H661 = test system: NCI-H661
Outline: as §1

NCI-H838 = test system: NCI-H838
Outline: as §1

O=c1[nH]c2ccccc2n1C1CCN(CCCC(c2ccc(F)cc2)c2ccc(F)cc2)CC1 [Pimozide] + N=C(N)NC(=N)NCCc1ccccc1 [Phenformin] (partner 250 µM)
relative viability (201T; first compound 0.08 µM): 0.467
relative viability (201T; first compound 0.253 µM): 0.404
relative viability (201T; first compound 0.8 µM): 0.444
relative viability (201T; first compound 2.53 µM): 0.379
relative viability (201T; first compound 8 µM): 0.44
relative viability (ABC-1; first compound 0.08 µM): 0.265
relative viability (ABC-1; first compound 0.253 µM): 0.258
relative viability (ABC-1; first compound 0.8 µM): 0.227
relative viability (ABC-1; first compound 2.53 µM): 0.287
relative viability (ABC-1; first compound 8 µM): 0.209
relative viability (CAL-12T; first compound 0.08 µM): 0.581
relative viability (CAL-12T; first compound 0.253 µM): 0.506
relative viability (CAL-12T; first compound 0.8 µM): 0.623
relative viability (CAL-12T; first compound 2.53 µM): 0.496
relative viability (CAL-12T; first compound 8 µM): 0.575
relative viability (COR-L23; first compound 0.08 µM): 0.455
relative viability (COR-L23; first compound 0.253 µM): 0.479
relative viability (COR-L23; first compound 0.8 µM): 0.407
relative viability (COR-L23; first compound 2.53 µM): 0.456
relative viability (COR-L23; first compound 8 µM): 0.49
relative viability (HCC-44; first compound 0.08 µM): 0.253
relative viability (HCC-44; first compound 0.253 µM): 0.206
relative viability (HCC-44; first compound 0.8 µM): 0.138
relative viability (HCC-44; first compound 2.53 µM): 0.142
relative viability (HCC-44; first compound 8 µM): 0.278
relative viability (HOP-62; first compound 0.08 µM): 0.67
relative viability (HOP-62; first compound 0.253 µM): 0.657
relative viability (HOP-62; first compound 2.53 µM): 0.644
relative viability (HOP-62; first compound 8 µM): 0.655
relative viability (LC-2-ad; first compound 0.08 µM): 0.573
relative viability (LC-2-ad; first compound 0.253 µM): 0.558
relative viability (LC-2-ad; first compound 0.8 µM): 0.571
relative viability (LC-2-ad; first compound 2.53 µM): 0.623
relative viability (LC-2-ad; first compound 8 µM): 0.605
relative viability (LCLC-103H; first compound 0.08 µM): 0.327
relative viability (LCLC-103H; first compound 0.253 µM): 0.324
relative viability (LCLC-103H; first compound 0.8 µM): 0.317
relative viability (LCLC-103H; first compound 2.53 µM): 0.332
relative viability (LCLC-103H; first compound 8 µM): 0.364
relative viability (NCI-H1355; first compound 0.08 µM): 0.45
relative viability (NCI-H1355; first compound 0.253 µM): 0.435
relative viability (NCI-H1355; first compound 0.8 µM): 0.437
relative viability (NCI-H1355; first compound 2.53 µM): 0.417
relative viability (NCI-H1355; first compound 8 µM): 0.404
relative viability (NCI-H1395; first compound 0.08 µM): 0.411
relative viability (NCI-H1395; first compound 0.253 µM): 0.405
relative viability (NCI-H1395; first compound 0.8 µM): 0.411
relative viability (NCI-H1395; first compound 2.53 µM): 0.42
relative viability (NCI-H1395; first compound 8 µM): 0.403
relative viability (NCI-H1651; first compound 0.08 µM): 0.346
relative viability (NCI-H1651; first compound 0.253 µM): 0.305
relative viability (NCI-H1651; first compound 0.8 µM): 0.316
relative viability (NCI-H1651; first compound 2.53 µM): 0.338
relative viability (NCI-H1651; first compound 8 µM): 0.283
relative viability (NCI-H1666; first compound 0.08 µM): 0.608
relative viability (NCI-H1666; first compound 0.253 µM): 0.5
relative viability (NCI-H1666; first compound 0.8 µM): 0.597
relative viability (NCI-H1666; first compound 2.53 µM): 0.555
relative viability (NCI-H1666; first compound 8 µM): 0.513
relative viability (NCI-H1993; first compound 0.08 µM): 0.477
relative viability (NCI-H1993; first compound 0.253 µM): 0.509
relative viability (NCI-H1993; first compound 0.8 µM): 0.455
relative viability (NCI-H1993; first compound 2.53 µM): 0.522
relative viability (NCI-H1993; first compound 8 µM): 0.49
relative viability (NCI-H2085; first compound 0.08 µM): 0.681
relative viability (NCI-H2085; first compound 0.253 µM): 0.732
relative viability (NCI-H2085; first compound 0.8 µM): 0.58
relative viability (NCI-H2085; first compound 2.53 µM): 0.705
relative viability (NCI-H2085; first compound 8 µM): 0.637
relative viability (NCI-H2170; first compound 0.08 µM): 0.411
relative viability (NCI-H2170; first compound 0.253 µM): 0.383
relative viability (NCI-H2170; first compound 0.8 µM): 0.44
relative viability (NCI-H2170; first compound 2.53 µM): 0.399
relative viability (NCI-H2170; first compound 8 µM): 0.367
relative viability (NCI-H2228; first compound 0.08 µM): 0.371
relative viability (NCI-H2228; first compound 0.253 µM): 0.293
relative viability (NCI-H2228; first compound 0.8 µM): 0.338
relative viability (NCI-H2228; first compound 2.53 µM): 0.225
relative viability (NCI-H2228; first compound 8 µM): 0.192
relative viability (NCI-H2347; first compound 0.253 µM): 0.474
relative viability (NCI-H2347; first compound 0.8 µM): 0.374
relative viability (NCI-H2347; first compound 2.53 µM): 0.451
relative viability (NCI-H2347; first compound 8 µM): 0.269
relative viability (NCI-H23; first compound 0.08 µM): 0.782
relative viability (NCI-H23; first compound 0.253 µM): 0.741
relative viability (NCI-H23; first compound 0.8 µM): 0.673
relative viability (NCI-H23; first compound 2.53 µM): 0.692
relative viability (NCI-H23; first compound 8 µM): 0.79
relative viability (NCI-H322M; first compound 0.253 µM): 0.738
relative viability (NCI-H322M; first compound 0.8 µM): 0.766
relative viability (NCI-H322M; first compound 2.53 µM): 0.816
relative viability (NCI-H322M; first compound 8 µM): 0.749
relative viability (NCI-H520; first compound 0.08 µM): 0.724
relative viability (NCI-H520; first compound 0.253 µM): 0.615
relative viability (NCI-H520; first compound 0.8 µM): 0.613
relative viability (NCI-H520; first compound 2.53 µM): 0.623
relative viability (NCI-H520; first compound 8 µM): 0.678
relative viability (NCI-H647; first compound 0.08 µM): 0.59
relative viability (NCI-H647; first compound 0.253 µM): 0.497
relative viability (NCI-H647; first compound 0.8 µM): 0.435
relative viability (NCI-H647; first compound 2.53 µM): 0.452
relative viability (NCI-H647; first compound 8 µM): 0.527
relative viability (NCI-H661; first compound 0.08 µM): 0.256
relative viability (NCI-H661; first compound 0.253 µM): 0.287
relative viability (NCI-H661; first compound 0.8 µM): 0.257
relative viability (NCI-H661; first compound 2.53 µM): 0.263
relative viability (NCI-H661; first compound 8 µM): 0.257
relative viability (NCI-H838; first compound 0.08 µM): 0.609
relative viability (NCI-H838; first compound 0.253 µM): 0.636
relative viability (NCI-H838; first compound 0.8 µM): 0.636
relative viability (NCI-H838; first compound 2.53 µM): 0.519
relative viability (NCI-H838; first compound 8 µM): 0.562

Source: the supplement of paper PMC10307832
